From patent publication US8673929B2, “4,6-di- and 2,4,6-trisubstituted quinazoline derivatives and pharmaceutical compositions useful for treating viral infections” (priority 2006, dated 2014) come the findings set out here.

The test system of one data set is HCV replicon. The data set can be described thus: Anti-HCV replicon assay, EC50 (luciferase readout). Type of data set: cell-based. The following applies: Hepatitis C virus, 72 h; Huh-7 HCV replicon cells, 3 days incubation, luciferase luminescence. The method, boiled down: (§1)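 Huh-7 cells harbouring an HCV replicon (6000/well) incubated 3 days at 37° C with 3-fold serially diluted compound (0.5% DMSO final where used). EC50 from luciferase luminescence of lysed cells; CC50 from CellTiter-Glo luminescence in parallel plates.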
(Replicon systems follow genome replication, usually without infectious particles.)

Data set [1] in a line: CC50 assay in the anti-HCV replicon assay (CellTiter-Glo). The following applies: human, Huh-7 hepatoma cells harbouring an HCV replicon; Huh-7 HCV replicon cells, 3 days incubation, CellTiter-Glo luminescence. Type of data set: cell-based, human. In a few lines:
as §1

In general, EC50 refers to the concentration giving half of the maximal effect. One may read the CC50 as the concentration that lowers cell viability or growth by half. Read a low CC50 as harm at low concentration. As to `CNC(=O)c1ccc(-c2ccc3nc(N)nc(OC(C)C)c3c2)cc1Cl` [Example 182, 4-(2-Amino-4-isopropoxy-quinazolin-6-yl)-2-chloro-N-methyl-benzamide], the EC50 in the data set with HCV replicon is < 0.3 µM. Also, the CC50 at 3 days in data set [1] is > 20 µM.

Regarding `CC(C)Oc1nc(N)nc2ccc(-c3ccc(C(=O)NC4CC4)c(Cl)c3)cc12` [Example 183, 4-(2-Amino-4-isopropoxy-quinazolin-6-yl)-2-chloro-N-cyclopropyl-benzamide], in the data set with HCV replicon, the EC50 is 0.3 to 1 µM. Further, in data set [1], the CC50 at 3 days was > 20 µM.

In the data set on HCV replicon, `CC(C)Oc1nc(N)nc2ccc(-c3cccc(O)c3)cc12` [Example 184, 3-(2-Amino-4-isopropoxy-quinazolin-6-yl)-phenol] had an EC50 of 0.3 to 1 µM. In addition, the CC50 at 3 days in data set [1] was < 10 µM.

Take `CC(C)Oc1nc(N)nc2ccc(-c3ccc(C(=O)NC4CC4)cc3)cc12` [Example 185, 4-(2-Amino-4-isopropoxy-quinazolin-6-yl)-N-cyclopropyl-benzamide]: the EC50 with HCV replicon is < 0.3 µM. In addition, the CC50 at 3 days in data set [1] was < 10 µM.

In the data set on HCV replicon, `CNC(=O)c1cccc(-c2ccc3nc(N)nc(OC(C)C)c3c2)c1` [Example 186, 3-(2-Amino-4-isopropoxy-quinazolin-6-yl)-N-methyl-benzamide] came in with a concentration giving a half-maximal response (EC50) of 0.3 to 1 µM. The same compound yielded a CC50 at 3 days in data set [1] of 10 to 20 µM.

On to `CCOc1nc(N)nc2ccc(-c3ccc(-c4nnc(C)o4)cc3)cc12` [Example 187, 4-Ethoxy-6-[4-(5-methyl-[1,3,4]oxadiazol-2-yl)-phenyl]-quinazolin-2-ylamine], for which the EC50 with HCV replicon is 1 to 10 µM. In data set [1], the CC50 at 3 days was > 20 µM.

`CC(C)CNC(=O)c1ccc(-c2ccc3nc(N)nc(OCCO)c3c2)cc1` [Example 188, 4-[2-Amino-4-(2-hydroxy-ethoxy)-quinazolin-6-yl]-N-isobutyl-benzamide] returned an EC50 with HCV replicon of 1 to 10 µM. In addition, in data set [1], the CC50 at 3 days is > 20 µM.

Take `Nc1nc(OCCO)c2cc(-c3ccc(C(=O)NC4CCCC4)cc3)ccc2n1` [Example 189, 4-[2-Amino-4-(2-hydroxy-ethoxy)-quinazolin-6-yl]-N-cyclopentyl-benzamide]: the EC50 with HCV replicon was in the range of 1 to 10 µM. Besides, the 50% cytotoxic concentration (CC50) at 3 days in data set [1] is > 20 µM.

For the compound `CC(C)NC(=O)c1ccc(-c2ccc3nc(N)nc(OCCO)c3c2)cc1` [Example 190, 4-[2-Amino-4-(2-hydroxy-ethoxy)-quinazolin-6-yl]-N-isopropyl-benzamide], the EC50 in the data set with HCV replicon lay in the range of 1 to 10 µM. In addition, the CC50 at 3 days in data set [1] is > 20 µM.

`CONC(=O)c1ccc(-c2ccc3nc(N)nc(OCCO)c3c2)cc1` [Example 191, 4-[2-Amino-4-(2-hydroxy-ethoxy)-quinazolin-6-yl]-N-methoxy-benzamide] displayed an EC50 in the data set with HCV replicon of 1 to 10 µM. Besides, the cytotoxic concentration (CC50) at 3 days in data set [1] is > 20 µM.

The compound `Nc1nc(OCCO)c2cc(-c3ccc(C(=O)N4CCSC4)cc3)ccc2n1` [Example 192, {4-[2-Amino-4-(2-hydroxy-ethoxy)-quinazolin-6-yl]-phenyl}-thiazolidin-3-yl-methanone] returned a half-maximal effective concentration (EC50) with HCV replicon of 1 to 10 µM. In data set [1], the CC50 at 3 days was > 20 µM.

For `Nc1nc(OCCO)c2cc(-c3ccc(O)cc3)ccc2n1` [Example 193, 4-[2-Amino-4-(2-hydroxy-ethoxy)-quinazolin-6-yl]-phenol], in the data set on HCV replicon, the EC50 fell in the range of 1 to 10 µM. In data set [1], the CC50 at 3 days is > 20 µM.

Turning to `Nc1nc(OCCO)c2cc(-c3cccc(O)c3)ccc2n1` [Example 194, 3-[2-Amino-4-(2-hydroxy-ethoxy)-quinazolin-6-yl]-phenol], the EC50 in the data set with HCV replicon fell in the range of 1 to 10 µM. The CC50 at 3 days in data set [1] lay in the range of 10 to 20 µM.

On to `Nc1nc(OCCO)c2cc(-c3ccc(C(=O)NC4CC4)cc3)ccc2n1` [Example 195, 4-[2-Amino-4-(2-hydroxy-ethoxy)-quinazolin-6-yl]-N-cyclopropyl-benzamide], for which the 50% effective concentration (EC50) in the data set with HCV replicon fell in the range of 1 to 10 µM. The CC50 at 3 days in data set [1] was > 20 µM.

The compound `Nc1nc(OCCF)c2cc(-c3ccc(C(=O)N4CCCCC4)cc3)ccc2n1` [Example 196, {4-[2-Amino-4-(2-fluoro-ethoxy)-quinazolin-6-yl]-phenyl}-piperidin-1-yl-methanone] showed an EC50 in the data set on HCV replicon of 1 to 10 µM. The CC50 at 3 days in data set [1] is > 20 µM.

Regarding `Nc1nc(OCCF)c2cc(-c3ccc(C(=O)NCc4ccccc4)cc3)ccc2n1` [Example 197, 4-[2-Amino-4-(2-fluoro-ethoxy)-quinazolin-6-yl]-N-benzyl-benzamide], the EC50 in the data set with HCV replicon was in the range of 1 to 10 µM. Also, the CC50 at 3 days in data set [1] was 10 to 20 µM.

For `CC(C)CNC(=O)c1ccc(-c2ccc3nc(N)nc(OCCF)c3c2)cc1` [Example 198, 4-[2-Amino-4-(2-fluoro-ethoxy)-quinazolin-6-yl]-N-isobutyl-benzamide], the EC50 in the data set on HCV replicon was in the range of 1 to 10 µM. The CC50 at 3 days in data set [1] lay within 10 to 20 µM.

The compound `CCCCNC(=O)c1ccc(-c2ccc3nc(N)nc(OCCF)c3c2)cc1` [Example 199, 4-[2-Amino-4-(2-fluoro-ethoxy)-quinazolin-6-yl]-N-butyl-benzamide] returned an EC50 in the data set with HCV replicon of 1 to 10 µM. For the same compound, the CC50 at 3 days in data set [1] was > 20 µM.

For the compound `CC(C)(C)NC(=O)c1ccc(-c2ccc3nc(N)nc(OCCF)c3c2)cc1` [Example 200, 4-[2-Amino-4-(2-fluoro-ethoxy)-quinazolin-6-yl]-N-tert-butyl-benzamide], the EC50 in the data set with HCV replicon was 1 to 10 µM. In addition, the CC50 at 3 days in data set [1] is > 20 µM.

`Nc1nc(OCCF)c2cc(-c3ccc(C(=O)NC4CCCC4)cc3)ccc2n1` [Example 201, 4-[2-Amino-4-(2-fluoro-ethoxy)-quinazolin-6-yl]-N-cyclopentyl-benzamide] displayed an EC50 in the data set with HCV replicon of 1 to 10 µM. In data set [1], this compound registered a CC50 at 3 days of 10 to 20 µM.

For `CC(C)NC(=O)c1ccc(-c2ccc3nc(N)nc(OCCF)c3c2)cc1` [Example 202, 4-[2-Amino-4-(2-fluoro-ethoxy)-quinazolin-6-yl]-N-isopropyl-benzamide], in the data set on HCV replicon, the EC50 fell in the range of 1 to 10 µM. The CC50 at 3 days in data set [1] was > 20 µM.

`CONC(=O)c1ccc(-c2ccc3nc(N)nc(OCCF)c3c2)cc1` [Example 203, 4-[2-Amino-4-(2-fluoro-ethoxy)-quinazolin-6-yl]-N-methoxy-benzamide] yielded an EC50 with HCV replicon of 1 to 10 µM. Besides, the CC50 at 3 days in data set [1] is > 20 µM.

As for `Nc1nc(OCCF)c2cc(-c3ccc(C(=O)N4CCSC4)cc3)ccc2n1` [Example 204, {4-[2-Amino-4-(2-fluoro-ethoxy)-quinazolin-6-yl]-phenyl}-thiazolidin-3-yl-methanone], the EC50 in the data set on HCV replicon fell in the range of 1 to 10 µM. In addition, the CC50 at 3 days in data set [1] was > 20 µM.

On to `Nc1nc(OCCF)c2cc(-c3ccc(C(=O)N4CCSCC4)cc3)ccc2n1` [Example 205, {4-[2-Amino-4-(2-fluoro-ethoxy)-quinazolin-6-yl]-phenyl}-thiomorpholin-4-yl-methanone], for which, in the data set on HCV replicon, the EC50 lay in the range of 1 to 10 µM. In addition, the CC50 at 3 days in data set [1] is > 20 µM.

Compound `Nc1nc(OCCF)c2cc(-c3ccc(C(=O)NC4=NCCS4)cc3)ccc2n1` [Example 206, 4-[2-Amino-4-(2-fluoro-ethoxy)-quinazolin-6-yl]-N-(4,5-dihydro-thiazol-2-yl)-benzamide] came in with an EC50 in the data set on HCV replicon of 1 to 10 µM. The CC50 at 3 days in data set [1] was > 20 µM.

In the data set on HCV replicon, `CNC(=O)c1ccc(-c2ccc3nc(N)nc(OCCF)c3c2)cc1Cl` [Example 207, 4-[2-Amino-4-(2-fluoro-ethoxy)-quinazolin-6-yl]-2-chloro-N-methyl-benzamide] registered an EC50 of 1 to 10 µM. Further, the CC50 at 3 days in data set [1] is > 20 µM.
